Test system: LbetaT2 cells
Assay: Intracellular calcium mobilization (Fura2) in LbetaT2 cells
Type: cell-based, murine
Details: pre-treatment with 100 nM cetrorelix; data not shown
Experimental: Figure 5 Effect of treatments on intracellular calcium mobilization. Cells were loaded with Fura 2-AM. At the time of the experiment 100 µM EGTA was added 30 sec before addition of 300 µM of CaCl2 (Ca^2+) to the medium as indicated, and cells were then stimulated with 10 nM of wild type (WT), mutant (R31C) or equimolar combination (10 nM WT +10 nM R31C) or vehicle for 3 min. In the upper panel, representative curves of single cell recording. Each experiment mean was analysed using One-way ANOVA followed by Tukey's Multiple comparison test. In the lower panels, histograms show the means ± SEM (n = 4) of the response to ligands as calcium peak and as area under the curve (AUC). […] Representative of at least three independent experiments, *p<0.05.
LbetaT2 cells were kept in serum free medium overnight and then loaded with 2 µM Fura2-AM for 45 min at 37°C. The experiment was conducted in HEPES buffer (in mM; 116 NaCl, 5.6 KCl, 1.2 MgCl2, 5 NaHCO3, 1 NaH2PO4, 20 HEPES ph 7.4) in presence of extracellular Ca^2+ (EGTA 100 µM + CaCl2 300 µM). Single images of fluorescent emission at 510 nm under excitation at 340 and 380 nm were taken every 5 Sec. Changes in [Ca^2+]i in response to GnRHs were monitored using the Fura2 340/380 fluorescence ratio. Basal ratio was arbitrarily considered as 1. Ca^2+ responses over basal level were given either as maximal rise of [Ca^2+]i or as area under the curve (for 2 min after agonist addition).

## cetrorelix [reference compound]
  calcium responses to WT and R31C after antagonist pre-treatment: abolished responses to both ligands

— PMC3723855, “R31C GNRH1 Mutation and Congenital Hypogonadotropic Hypogonadism” (PLoS ONE, 2013)
